For one assay, the target named is T1, PI3K-alpha (Homo sapiens, UniProt P42336).
T1 construct: purchased Upstate Cell Signaling Solutions
In kind it is biochemical. How it is done:
The kinase activity of mTOR enzyme is assessed by incubating purified recombinant enzyme (mTOR(1360-2549)+GBL, prepared in-house) in a reaction mixture containing ATP, MnCl2, and a fluorescently labeled mTOR substrate, e.g., GFP-4E-BP1 (Invitrogen, product #PR8808A). The reaction is stopped by an addition of a Terbium-labeled phospho-specific antibody, e.g., Tb-labeled anti-p4E-BP1 T37/T46, (Invitrogen, product #PR8835A), EDTA, and TR-FRET buffer solution (Invitrogen, Product #PR3756B). Product formation is detected by way of time-resolved fluorescence resonance energy transfer (TR-FRET), which occurs when the phosphorylated substrate and labeled antibody are in close proximity due to phospho-specific binding. Enzymatic activity is measured as an increase in TR-FRET signal using a Perkin Elmer Envision plate reader. The assay is performed in a 384-well Proxiplate Plus (Perkin Elmer. Product #6008269) using the following protocol:
Compound activity is tested in 10 point dose curves starting at the highest final concentration of 10 uM. They are serially diluted in 100% DMSO prior to further dilution with assay buffer. The reaction mixture (8 uls) containing 0.25 nM mTOR+GBL enzyme, 400 nM GFP-4E-BP1, 8 uM ATP, 50 mM Hepes pH 7.5, 0.01% Tween 20, 10 mM MnCl2, 1 mM EGTA, 1 mM DTT, 1% DMSO (+/−compound) is incubated at room temperature for 30 minutes. 8 μL of solution containing 2 nM Tb-anti-p4E-BP1 antibody & 10 mM EDTA diluted TR-FRET buffer is then added and incubated for 30 minutes to stop the reaction. The plate is scanned with the Envision plate reader. Ki values are calculated in Assay Explorer using the Morrison ATP-competitive tight binding equation for Ki apparent determination.
Binding Assays: Initial polarization experiments were performed on an Analyst HT 96-384 (Molecular Devices Corp, Sunnyvale, Calif.). […] After an incubation time of 30 minutes at room temperature, the reactions were stopped by the addition of GRP-1 and PIP3-TAMRA probe (Echelon-Inc., Salt Lake City, Utah) 100 nM and 5 nM final concentrations respectively. […] This experiment also establishes the appropriate protein concentration to use in subsequent competition experiments with inhibitors.
After an incubation time of 30 minutes at room temperature, the reactions were stopped by the addition of GRP-1 and PIP3-TAMRA probe (Echelon-Inc., Salt Lake City, Utah) 100 nM and 5 nM final concentrations respectively.

Assay [1] has as its target T2, mTOR kinase (mTOR(1360-2549)+GBL) (Homo sapiens, UniProt P42345).
T2 construct: mTOR(1360-2549)+GBL, prepared in-house; made in house
As to the kind of experiment: In vitro mTOR kinase assay (TR-FRET). Particulars: read-out: activity level (Ki) in the mTOR kinase assay. It counts as biochemical. How it is done:
The reaction is stopped by an addition of a Terbium-labeled phospho-specific antibody, e.g., Tb-labeled anti-p4E-BP1 T37/T46, (Invitrogen, product #PR8835A), EDTA, and TR-FRET buffer solution (Invitrogen, Product #PR3756B). Product formation is detected by way of time-resolved fluorescence resonance energy transfer (TR-FRET), which occurs when the phosphorylated substrate and labeled antibody are in close proximity due to phospho-specific binding. Enzymatic activity is measured as an increase in TR-FRET signal using a Perkin Elmer Envision plate reader.
Compound activity is tested in 10 point dose curves starting at the highest final concentration of 10 uM. They are serially diluted in 100% DMSO prior to further dilution with assay buffer. […] 8 μL of solution containing 2 nM Tb-anti-p4E-BP1 antibody & 10 mM EDTA diluted TR-FRET buffer is then added and incubated for 30 minutes to stop the reaction. The plate is scanned with the Envision plate reader. Ki values are calculated in Assay Explorer using the Morrison ATP-competitive tight binding equation for Ki apparent determination.

The next assay relates to PC3 cells. As to the kind of experiment: In vitro cell proliferation assay. In kind it is cell-based. The settings on record: Homo sapiens. How it is done:
Efficacy of Formula I compounds were measured by a cell proliferation assay employing the following protocol: 1. An aliquot of 20 μl of cell culture containing about 10^3 cells (PC3 or MDAMB361.1) in medium was deposited in each well of a 384-well, opaque-walled plate. 2. Control wells were prepared containing medium and without cells; Cells were allowed to settle overnight. 3. The compound was added to the experimental wells and incubated for 3 days. 4. The plates were equilibrated to room temperature for approximately 30 minutes. 5. A volume of CellTiter-Glo Reagent equal to the volume of cell culture medium present in each well was added. 6. The contents were mixed for 2 minutes on an orbital shaker to induce cell lysis. 7. The plate was incubated at room temperature for 20 minutes to stabilize the luminescence signal. […] Luminescence was recorded and reported in graphs as RLU=relative luminescence units. Alternatively, cells were seeded at optimal density in a 96 well plate and incubated for 4 days in the presence of test compound. […] IC50 values were calculated using a sigmoidal dose response curve fit.

In assay [2] the test system is AKT serine-473 phosphorylation in EGF-stimulated PC-3 cells. The experiment in a line: In vitro phospho-AKT serine 473 cellular assay. It counts as cell-based. Particulars: Homo sapiens. How it is done:
The PC-3 cell line is maintained in RPMI1640 media supplemented with 10% FBS, 2 mM Glutamine, and 10 mM HEPES pH 7.4 at 37° C. in a 5% CO2 humidified incubator.
Cells are seeded in 384-well plates at 7,000 cells/well in […] growth media. After 24 hours, growth media is removed and replaced with RPMI1640 containing no FBS. Cells are treated with 10 concentrations of test compounds or DMSO alone for controls (final DMSO concentration 0.5%) and incubated at 37° C. for 30 minutes. Cells are then stimulated for 10 minutes with 100 ng/ml EGF (final concentration). One column of controls is not stimulated with EGF to observe the signal ratio between stimulated and non-stimulated cells. After 10 minutes, compounds and stimulation media are removed and replaced with 25 μl lysis buffer containing protease inhibitors and phosphatase inhibitors. This buffer contains detergent to bring about cellular disruption. […] Following the transfer of lysate to the MSD plate, AKT in the lysate is captured on the coated antibody by incubation on a shaker at 4° C. for 16 hours. Following the capture step the plate is washed and then incubated for two hours with an antibody to S473 phosphorylated AKT which is conjugated with a Sulfo-Tag. This tag gives a signal when in proximity to the electrode on the base of the MSD plate. Binding the tagged antibody to the captured protein allow detection on a MSD reader.
EC50 values are calculated using MDL Assay Explorer 3.0.1.8 fitting a sigmoidal curve with a variable slope.

The mark [3] stands for this setting: PC-3, with PC3 cells, read-out: IC50 value, cell proliferation.
[4] abbreviates: recombinant mTOR+GBL, 8 uM ATP, Ki apparent.
Where [5] appears, read: PC-3, read-out: IC50 value, cell proliferation.
Where [6] appears, read: PC-3 cells stimulated with EGF, read-out: EC50 activity level, inhibition of S473 AKT phosphorylation.

Read-outs that look alike come from different tables or passages of the source.

T2 sequence (P42345 1360-2549): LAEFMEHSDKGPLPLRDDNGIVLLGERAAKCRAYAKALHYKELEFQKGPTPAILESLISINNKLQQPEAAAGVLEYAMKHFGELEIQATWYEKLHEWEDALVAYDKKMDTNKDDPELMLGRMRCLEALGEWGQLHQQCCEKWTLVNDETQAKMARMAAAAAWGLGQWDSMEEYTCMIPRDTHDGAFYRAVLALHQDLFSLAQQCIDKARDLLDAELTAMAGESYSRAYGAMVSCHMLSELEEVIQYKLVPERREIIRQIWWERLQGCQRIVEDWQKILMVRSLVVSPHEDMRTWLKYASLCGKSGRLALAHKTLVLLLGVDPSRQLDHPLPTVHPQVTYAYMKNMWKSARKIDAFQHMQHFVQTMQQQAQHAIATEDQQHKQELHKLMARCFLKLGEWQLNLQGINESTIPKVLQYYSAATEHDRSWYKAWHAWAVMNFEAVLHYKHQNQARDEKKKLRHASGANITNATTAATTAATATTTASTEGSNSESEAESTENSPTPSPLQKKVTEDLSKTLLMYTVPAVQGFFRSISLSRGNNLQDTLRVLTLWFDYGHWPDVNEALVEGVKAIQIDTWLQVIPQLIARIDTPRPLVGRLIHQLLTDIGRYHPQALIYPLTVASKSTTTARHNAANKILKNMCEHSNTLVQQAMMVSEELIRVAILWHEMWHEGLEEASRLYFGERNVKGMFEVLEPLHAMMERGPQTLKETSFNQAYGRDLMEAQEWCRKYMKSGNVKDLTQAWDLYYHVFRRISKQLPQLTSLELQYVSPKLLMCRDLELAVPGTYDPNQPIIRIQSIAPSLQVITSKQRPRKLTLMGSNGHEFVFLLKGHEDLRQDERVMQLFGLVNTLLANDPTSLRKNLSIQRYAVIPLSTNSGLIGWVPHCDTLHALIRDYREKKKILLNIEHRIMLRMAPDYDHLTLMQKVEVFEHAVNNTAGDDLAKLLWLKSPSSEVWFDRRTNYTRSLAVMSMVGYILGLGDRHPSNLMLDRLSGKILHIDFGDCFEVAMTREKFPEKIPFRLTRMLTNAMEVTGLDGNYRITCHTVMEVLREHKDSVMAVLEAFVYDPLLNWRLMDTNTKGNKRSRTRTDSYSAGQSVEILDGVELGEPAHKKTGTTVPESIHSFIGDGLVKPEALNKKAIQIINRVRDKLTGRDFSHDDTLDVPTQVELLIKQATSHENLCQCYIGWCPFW
T2 sequence (Q9BVC4 whole entry partner): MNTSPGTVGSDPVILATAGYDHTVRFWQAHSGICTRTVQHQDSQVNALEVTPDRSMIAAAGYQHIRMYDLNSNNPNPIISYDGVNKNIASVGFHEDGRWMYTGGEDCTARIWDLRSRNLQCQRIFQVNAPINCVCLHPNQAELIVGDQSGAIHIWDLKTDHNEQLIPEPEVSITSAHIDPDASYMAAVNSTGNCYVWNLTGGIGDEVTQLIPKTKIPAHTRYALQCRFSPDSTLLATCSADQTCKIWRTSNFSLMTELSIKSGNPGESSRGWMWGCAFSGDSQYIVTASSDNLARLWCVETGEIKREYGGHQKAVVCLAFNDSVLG
T1 sequence (P42336 whole entry, species assumed): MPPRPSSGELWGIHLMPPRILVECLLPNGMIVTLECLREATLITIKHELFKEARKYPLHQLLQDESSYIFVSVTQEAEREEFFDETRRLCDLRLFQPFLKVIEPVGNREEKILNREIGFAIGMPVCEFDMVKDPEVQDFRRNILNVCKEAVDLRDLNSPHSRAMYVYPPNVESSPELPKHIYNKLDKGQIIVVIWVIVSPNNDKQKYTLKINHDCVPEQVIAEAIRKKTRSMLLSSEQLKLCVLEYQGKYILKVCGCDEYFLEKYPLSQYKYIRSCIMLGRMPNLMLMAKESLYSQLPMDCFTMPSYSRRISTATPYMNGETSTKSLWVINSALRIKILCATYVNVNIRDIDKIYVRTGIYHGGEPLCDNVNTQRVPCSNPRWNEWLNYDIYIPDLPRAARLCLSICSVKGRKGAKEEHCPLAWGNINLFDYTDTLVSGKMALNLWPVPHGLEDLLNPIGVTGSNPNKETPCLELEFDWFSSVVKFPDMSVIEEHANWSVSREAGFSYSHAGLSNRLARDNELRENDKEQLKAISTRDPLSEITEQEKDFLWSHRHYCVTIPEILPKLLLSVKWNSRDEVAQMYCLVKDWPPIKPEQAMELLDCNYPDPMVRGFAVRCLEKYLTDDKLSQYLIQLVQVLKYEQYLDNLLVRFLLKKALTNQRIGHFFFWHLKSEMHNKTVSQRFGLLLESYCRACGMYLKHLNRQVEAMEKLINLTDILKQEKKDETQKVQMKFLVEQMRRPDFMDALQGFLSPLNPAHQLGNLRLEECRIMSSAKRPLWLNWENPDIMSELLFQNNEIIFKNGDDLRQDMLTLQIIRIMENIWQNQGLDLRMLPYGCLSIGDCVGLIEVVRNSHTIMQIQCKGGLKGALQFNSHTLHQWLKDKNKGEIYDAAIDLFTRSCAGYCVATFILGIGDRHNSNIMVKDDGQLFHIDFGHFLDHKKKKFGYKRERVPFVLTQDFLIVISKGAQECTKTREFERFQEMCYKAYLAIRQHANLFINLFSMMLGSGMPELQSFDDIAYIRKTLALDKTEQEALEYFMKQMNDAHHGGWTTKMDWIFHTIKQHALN
T1 sequence (P27986 whole entry partner, species assumed): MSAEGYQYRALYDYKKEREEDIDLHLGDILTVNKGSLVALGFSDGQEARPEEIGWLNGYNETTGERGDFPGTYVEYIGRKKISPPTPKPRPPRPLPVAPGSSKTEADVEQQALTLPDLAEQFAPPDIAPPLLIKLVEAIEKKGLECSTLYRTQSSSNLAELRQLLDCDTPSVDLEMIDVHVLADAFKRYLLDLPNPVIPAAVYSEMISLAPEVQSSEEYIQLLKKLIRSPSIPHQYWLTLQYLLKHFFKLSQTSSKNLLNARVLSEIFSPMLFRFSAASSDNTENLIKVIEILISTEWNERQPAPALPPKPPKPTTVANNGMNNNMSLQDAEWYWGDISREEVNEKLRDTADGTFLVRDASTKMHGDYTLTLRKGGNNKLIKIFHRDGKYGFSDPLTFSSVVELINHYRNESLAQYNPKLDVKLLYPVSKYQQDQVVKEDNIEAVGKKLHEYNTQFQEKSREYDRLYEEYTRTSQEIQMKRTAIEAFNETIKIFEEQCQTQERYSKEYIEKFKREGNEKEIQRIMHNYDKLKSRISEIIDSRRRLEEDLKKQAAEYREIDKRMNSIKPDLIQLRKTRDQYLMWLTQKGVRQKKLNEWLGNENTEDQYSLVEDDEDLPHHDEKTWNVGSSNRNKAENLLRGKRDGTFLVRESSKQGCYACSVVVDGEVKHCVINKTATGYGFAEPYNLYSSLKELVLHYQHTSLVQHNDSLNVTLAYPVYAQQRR

Take `CCNC(=O)Nc1ccc(-c2nc(N3CCOC[C@@H]3C)c3ncn(CC)c3n2)cc1` [(S)-1-ethyl-3-(4-(9-ethyl-6-(3-methylmorpholino)-9H-purin-2-yl)phenyl)urea, reference compound]: the “selectivity for mTOR kinase over related PI3 kinase (PI3K-alpha)” value (“selectivity for mTOR kinase” below) at PI3K-alpha is on record as 45 ×.

As to `CCNC(=O)Nc1ccc(-c2nc(N3CCOC[C@@H]3C)c3ncn(C)c3n2)cc1` [(S)-1-ethyl-3-(4-(9-methyl-6-(3-methylmorpholino)-9H-purin-2-yl)phenyl)urea, reference compound], at PI3K-alpha, the “selectivity for mTOR kinase” value is listed as 29 ×.

For `CCNC(=O)Nc1ccc(-c2nc(N3CCOCC3)c3c(ncn3C)n2)cc1` [Compound 101, 1-ethyl-3-(4-(7-methyl-6-morpholino-7H-purin-2-yl)phenyl)urea], the Ki in assay [1] was determined as 143 nM.

Regarding `CCNC(=O)Nc1ccc(-c2nc(N3CCOC[C@@H]3C)c3c(ncn3C)n2)cc1` [Compound 102, (S)-1-ethyl-3-(4-(7-methyl-6-(3-methylmorpholino)-7H-purin-2-yl)phenyl)urea], the IC50 with PC3 cells (setting [3]) came out at 294 nM.

Consider `CCNC(=O)Nc1ccc(-c2nc(N3CCOC[C@H]3C)c3c(ncn3C)n2)cc1` [Compound 103, (R)-1-ethyl-3-(4-(7-methyl-6-(3-methylmorpholino)-7H-purin-2-yl)phenyl)urea], for which the IC50 in the assay on PC3 cells (setting [3]) was 10000 nM.

In general, EC50 refers to the concentration giving half of the maximal effect. In the case of `CCNC(=O)Nc1ccc(-c2nc(N3CCOC[C@@H]3CC)c3c(ncn3C)n2)cc1` [Compound 104, (S)-1-ethyl-3-(4-(6-(3-ethylmorpholino)-7-methyl-7H-purin-2-yl)phenyl)urea], the IC50 with PC3 cells (setting [3]) stood at 737 nM. Besides, in assay [2] (PC-3, read-out: EC50 activity level, inhibition of S473 AKT phosphorylation), the EC50 came out at 69 nM. Moreover, in assay [1] (setting [4]), the Ki worked out at 4 nM.

For `CCNC(=O)Nc1ccc(-c2nc(N3CCCOCC3)c3c(ncn3C)n2)cc1` [Compound 105, 1-ethyl-3-(4-(7-methyl-6-(1,4-oxazepan-4-yl)-7H-purin-2-yl)phenyl)urea], the Ki in assay [1] (setting [4]) amounted to 121 nM.

In the case of `CCNC(=O)Nc1ccc(-c2nc(N3CCOC[C@@H]3C)c3c(ncn3CC)n2)cc1` [Compound 106, (S)-1-ethyl-3-(4-(7-ethyl-6-(3-methylmorpholino)-7H-purin-2-yl)phenyl)urea], the IC50 in the assay with PC3 cells (setting [5]) was 4200 nM. The EC50 in assay [2] (setting [6]) turned out to be 511 nM. In addition, in assay [1] (setting [4]), the Ki was 40 nM. The “selectivity for mTOR kinase” value at PI3K-alpha is listed as 250 ×.

As for `CCCCc1nc2nc(-c3ccc(NC(=O)NCC)cc3)nc(N3CCOC[C@@H]3C)c2n1C` [Compound 107, (S)-1-(4-(8-butyl-7-methyl-6-(3-methylmorpholino)-7H-purin-2-yl)phenyl)-3-ethylurea], in the assay on PC3 cells (setting [3]), the IC50 was found to be 2400 nM. The Ki in assay [1] was determined as 53 nM.

As to `CCNC(=O)Nc1ccc(-c2nc(N3CCOC[C@@H]3C)c3c(n2)nc(C(C)(C)O)n3C)cc1` [Compound 108, (S)-1-ethyl-3-(4-(8-(2-hydroxypropan-2-yl)-7-methyl-6-(3-methylmorpholino)-7H-purin-2-yl)phenyl)urea], in the assay on PC3 cells (setting [5]), the IC50 was determined as 8000 nM. Further, in assay [2] (setting [6]), the EC50 is 3500 nM. The Ki in assay [1] (setting [4]) turned out to be 30 nM.

In the case of `CCNC(=O)Nc1ccc(-c2nc(N3C[C@@H]4C[C@H]3CO4)c3c(cnn3C)n2)cc1` [Compound 109, 1-(4-(7-((1S,4S)-2-oxa-5-azabicyclo[2.2.1]heptan-5-yl)-1-methyl-1H-pyrazolo[4,3-d]pyrimidin-5-yl)phenyl)-3-ethylurea], in the assay with PC3 cells (setting [5]), the IC50 came out at 399 nM. Further, the Ki in assay [1] is 8 nM.

Turning to `CCNC(=O)Nc1ccc(-c2nc(N3CCOC[C@@H]3C)c3c(cnn3C)n2)cc1` [Compound 110, (S)-1-ethyl-3-(4-(1-methyl-7-(3-methylmorpholino)-1H-pyrazolo[4,3-d]pyrimidin-5-yl)phenyl)urea], the IC50 with PC3 cells (setting [5]) was 131 nM. The Ki in assay [1] turned out to be 1 nM. The “selectivity for mTOR kinase” value on PI3K-alpha is recorded as 1250 ×.

As for `CCNC(=O)Nc1ccc(-c2nc(N3CCOC[C@@H]3CC)c3c(cnn3C)n2)cc1` [Compound 111, (S)-1-ethyl-3-(4-(7-(3-ethylmorpholino)-1-methyl-1H-pyrazolo[4,3-d]pyrimidin-5-yl)phenyl)urea], the IC50 with PC3 cells (setting [3]) worked out at 2900 nM. The Ki in assay [1] was 28 nM.

For the compound `CCNC(=O)Nc1ccc(-c2nc(N3CCOC[C@@H]3CC)c3c(n2)c(C)nn3C)cc1` [Compound 112, (S)-1-ethyl-3-(4-(7-(3-ethylmorpholino)-1,3-dimethyl-1H-pyrazolo[4,3-d]pyrimidin-5-yl)phenyl)urea], the IC50 in the assay on PC3 cells (setting [3]) stood at 86 nM. Moreover, the Ki in assay [1] (setting [4]) turned out to be 2 nM.

For the compound `C[C@H]1COCCN1c1nc(-c2ccc(NC(=O)NC3COC3)cc2)nc2cnn(C)c12` [Compound 113, (S)-1-(4-(1-methyl-7-(3-methylmorpholino)-1H-pyrazolo[4,3-d]pyrimidin-5-yl)phenyl)-3-(oxetan-3-yl)urea], the IC50 with PC3 cells (setting [3]) was 5900 nM. Also, in assay [1], the Ki came out at 39 nM.

As to `C[C@H]1COCCN1c1nc(-c2ccc(NC(=O)NCCS(C)(=O)=O)cc2)nc2cnn(C)c12` [Compound 114, (S)-1-(4-(1-methyl-7-(3-methylmorpholino)-1H-pyrazolo[4,3-d]pyrimidin-5-yl)phenyl)-3-(2-(methylsulfonyl)ethyl)urea], the Ki in assay [1] stood at 145 nM.

The values above are taken from US8828990B2, “N-7 substituted purine and pyrazolopyrimine compounds, compositions and methods of use” (priority 2009, dated 2014).
